{"source": "patent US12053504B2", "about": "“Anti-angiogenic treatment using VLO4 with a blocking peptide” ([…] OF PHARMACY, LLC, priority 2011, dated 2024)", "molecules": {"B1": {"name": "VLO4 (protein)", "chain": "MNSGNPCCDPVTCKPRRGEHCVSGPCCRNCKFLNAGTICKRARGDDMNDYCTGISPDCPRNPWKG"}}, "key": {"HDMEC": {"test_system": "HDMEC", "experiment": "Microcarrier (EC-bead) in vitro sprout angiogenesis assay of HDMEC in fibrin gel", "format": "cell-based, human", "conditions": "for sprout angiogenesis in a HDMEC culture in VEGF and bFGF (Example 4): agent(s) added to HDMEC culture in VEGF and bFGF, doses not printed in this block; for sprout angiogenesis of HDMEC in fibrin induced by VEGF and bFGF: 3 days; for sprout angiogenesis of HDMEC in fibrin, single agent (Example 4 summary): in vitro, doses not given", "experimental": "Human dermal microvascular endothelial cells (HDMEC) were isolated from human neonatal foreskins. Briefly, after initial harvest from minced trypsinized human foreskins, microvascular endothelial cells were further purified on a PERCOLL density gradient. HDMEC were cultured on collagen type 1 coated tissue culture flasks in EGM (endothelial cell growth medium) consisting of EBM supplemented with 10 ng/ml epidermal growth factor, 0.4% bovine brain extract, 17.5 microg/ml dibutyryl cyclic AMP, and 1 microg/ml hydrocortisone in the presence of 30% normal human serum. Endothelial cell cultures were characterized and determined to be >99% pure on the basis of formation of typical cobblestone monolayers in culture, positive immunostaining for factor VIII-related antigen, and selective uptake of acetylated low density lipoprotein. All experiments were done with HDMEC below passage 10. Bovine aortic endothelial cells (BAEC) were obtained from BioWhittaker, Inc. (Walkersville, MD) and cultured according to manufacturer's instruction. BAEC between passage 4 and 8 were used for experiments.\nGelatin-coated CYTODEX-3 microcarrier beads were prepared as described by the manufacturer. Approximately 80,000 sterile microcarrier beads were washed, resuspended in EGM, and added to approximately 4.5 million endothelial cells (HDMEC or BAEC). The beads and cells were mixed by gentle swirling, incubated at 37° C. for 6 hr, and then rotated for 24-36 hr on an orbital mixer in a 37° C. oven to generate endothelial cell-loaded microcarrier beads (EC-beads).\nFIGS. 1A-1C illustrate a study of human microvascular endothelial cell angiogenesis, according to some embodiments. A microcarrier, in vitro angiogenesis assay, previously designed to investigate bovine pulmonary artery endothelial cell angiogenic behavior in bovine fibrin gels, was modified for the study of human microvascular endothelial cell angiogenesis. The HDMEC were isolated from human neonatal foreskins and used, as described above, and images were captured at various magnifications, where the effect of angiogenic factors on sprout angiogenesis was quantified visually by counting the number and percent of EC-beads with capillary sprouts. […]\nFor experiments using RGD peptides, EC-beads were firstly incubated with vary concentrations of peptides for one hour and then were added to the ECM solutions. About 500 EC-beads were then added to the ECM protein solutions, followed by the addition of 0.5 U/ml human thrombin. A 0.3 ml aliquot of each suspension was immediately added to appropriate wells of a 24-well tissue culture plate. After gelation, 1 ml of fresh assay medium (EBM supplemented with 20% normal human serum for HDMEC or EBM supplemented with 10% fetal bovine serum for BAEC) was added to each well.\nFIGS. 1B and 1C show how the angiogenic response was monitored visually and recorded by video image capture. Specifically, capillary sprout formation was observed and recorded with a NIKON Diaphot-TMD inverted microscope (Nikon Inc., Melville, NY), equipped with an incubator housing with a NIKON NP-2 thermostat and Sheldon #2004 carbon dioxide flow mixer. The microscope was directly interfaced to a video system consisting of a Dage-MTI CCD-72S video camera and Sony 12″ PVM-122 video monitor linked to a Macintosh G3 computer. The images were captured at various magnifications using Adobe Photoshop. The effect of angiogenic factors on sprout angiogenesis was quantified visually by determining the number and percent of EC-beads with capillary sprouts. 100-200 beads (five random low power fields) in each of triplicate wells were counted for each experimental condition. All experiments were repeated at least three times."}, "HT1080 tumor cell": {"test_system": "HT1080 tumor cell", "experiment": "HT1080 tumor cell invasion from contracted collagen into fibrin 3D matrices", "format": "cell-based", "conditions": "for HT1080 tumor cell invasion from contracted collagen into fibrin 3D matrices: 3 μg/ml, FIGS. 11 and 12"}, "colorectal cancer": {"test_system": "colorectal cancer", "conditions": "in combination with the standard Saltz regime of irinotecan, 5-fluorouracil, and leucovorin; cited from earlier work"}, "[1]": {"target": "collagen receptors α2β1 integrins (Homo sapiens, UniProt P05556+P17301)", "conditions": "cited from earlier work"}, "[2]": {"test_system": "H1650 (Human metastatic lung cancer cell line)", "experiment": "H1650 tumor cell proliferation", "format": "cell-based", "conditions": "FIG. 13"}, "[3]": {"test_system": "A549 (human alveolar adenocarcinoma cell line)", "experiment": "A549 tumor cell proliferation", "format": "cell-based", "conditions": "FIG. 13"}}, "note": "“Also recorded” adds a separate entry of the source.", "data": [{"molecule": "Echistatin (QCESGPCCRNCKFLKEGTICKRARGDDMDDYCNGKTCDCPRNPHKGPAT)", "values": [{"measurement": "sprout angiogenesis in a HDMEC culture in VEGF and bFGF (Example 4)", "setting": "HDMEC", "result": "inhibition"}, {"measurement": "sprout angiogenesis of HDMEC in fibrin induced by VEGF and bFGF", "setting": "HDMEC; echistatin 0.1 μg/ml alone, VEGF 30 ng/ml, bFGF 25 ng/ml, FIG. 10B", "result": "didn't significantly inhibit"}, {"measurement": "sprout angiogenesis of HDMEC in fibrin, single agent (Example 4 summary)", "setting": "HDMEC", "result": "dose dependently inhibits"}, {"measurement": "HT1080 tumor cell invasion from contracted collagen into fibrin 3D matrices", "setting": "HT1080 tumor cell", "result": "significantly inhibit"}]}, {"molecule": "GPenGRGDSPCA [RGD[VN], reference compound]", "values": [{"measurement": "sprout angiogenesis of HDMEC in fibrin", "setting": "HDMEC; RGD[VN] 12.5 mM-100 mM, pre-incubated 1 hr at RT, VEGF 100 ng/ml, compared to GRGESP[RGE] control peptide, FIG. 4", "result": "significantly inhibited"}]}, {"molecule": "AVASTATIN: human monoclonal antibody to VEGF", "values": [{"measurement": "increase in survival time", "setting": "colorectal cancer", "result": "more than 30%"}]}, {"molecule": "VP12", "values": [{"measurement": "sprout angiogenesis of HDMEC in fibrin induced by VEGF and bFGF", "setting": "HDMEC; VP12 10 μg/ml alone, VEGF 30 ng/ml, bFGF 25 ng/ml", "result": "didn't significantly inhibit"}, {"measurement": "enhancement of the inhibition of sprout angiogenesis by echistatin", "setting": "HDMEC; VP12 (ECL12) administered in combination with echistatin", "result": "significantly and synergistically enhanced"}, {"measurement": "sprout angiogenesis in a HDMEC culture in VEGF and bFGF (Example 4)", "setting": "HDMEC", "result": "inhibition"}, {"measurement": "sprout angiogenesis of HDMEC in fibrin, single agent (Example 4 summary)", "setting": "HDMEC", "result": "no inhibitory effect"}, {"measurement": "HT1080 tumor cell invasion from contracted collagen into fibrin 3D matrices", "setting": "HT1080 tumor cell", "result": "significantly inhibit"}, {"measurement": "inhibitory activity against collagen receptors α2β1 integrins", "setting": "[1]", "result": "potent inhibitory activity"}]}, {"molecule": "B1", "values": [{"measurement": "sprout angiogenesis of HDMEC in fibrin induced by VEGF and bFGF", "setting": "HDMEC; VLO4 0.01 μg/ml alone, VEGF 30 ng/ml, bFGF 25 ng/ml", "result": "didn't significantly inhibit"}, {"measurement": "sprout angiogenesis of HDMEC induced by VEGF in fibrin", "setting": "HDMEC; VLO4 0.3 μg/ml-3 μg/ml, 30 minutes at RT, VEGF 100 ng/ml, FIG. 5", "result": "dose-dependently inhibits"}, {"measurement": "disruption of newly formed angiogenic sprouts of HDMEC in fibrin", "setting": "HDMEC; VLO4 3 μg/ml added on day 5, read within 24 hours, VEGF 30 ng/ml, bFGF 25 ng/ml, CH2 10 μg/ml, FIG. 7B", "result": "totally disrupted; also recorded: disrupts"}, {"measurement": "sprout angiogenesis of HDMEC induced by VEGF in fibrin (micrographs)", "setting": "HDMEC; VLO4 0.01, 0.1, 0.3 and 1 μg/ml, 30 minutes at room temperature, VEGF 100 ng/ml, FIGS. 6A-6D", "result": "dose-dependently inhibits"}, {"measurement": "HT1080 tumor cell invasion from contracted collagen into fibrin 3D matrices", "setting": "HT1080 tumor cell", "result": "significantly inhibit"}, {"measurement": "HT1080 tumor cell invasion from contracted 3D collagen matrices into 3D fibrin matrices, dose dependence", "setting": "HT1080 tumor cell; FIG. 11", "result": "dose dependently inhibits"}, {"measurement": "H1650 tumor cell proliferation", "setting": "[2]", "result": "significantly inhibited"}, {"measurement": "A549 tumor cell proliferation", "setting": "[3]", "result": "significantly inhibited"}]}]}
